Laboratory results taken from patent US8609091B2, “Method for endocytic presentation of an immunosuppressive for the treatment of type 1 diabetes” (The Curators of the University of Missouri, priority 2002, dated 2013).

Columns and labels:
Format in all cases: cell-based, NOD mice
HEL-specific hybridoma = experiment: Presentation to HEL-specific T cell hybridoma (IL-2 production); conditions: irradiated NOD splenocytes; peptides 10 μM, Ig-chimeras 1 μM; 24 hours
Procedure: T cell hybridomas: A HEL-specific T cell line was fused with the αβ TCR negative thymoma BW1100 (ATCC) using polyethylene glycol 4000 (Sigma, St. Louis, Mo.). Hybrids were then selected by supplementing the culture media with hypoxanthine-azaserine (Sigma). Resulting hybridomas were then screened for reactivity to HEL peptide by testing for production of IL-2 in the supernatant following stimulation with irradiated (3000 rads) splenocytes in the presence of 15 μg/ml HEL peptide. Positive hybridomas were then cloned by limiting dilution and used to assess presentation of HEL peptide and Ig-HEL chimera.
(§1) Presentation of Ig-INSβ chimera to specific T cells was then determined. […] For presentation of INSβ peptide and Ig-INSβ (FIGS. 2(a) and 2(b) respectively), the activation was assessed by [^3H] thymidine incorporation since the T cells were from a line. Accordingly, 1 μCi [^3H]thymidine per well was added during the last 14 hours of a 3-day incubation period and the cells were harvested, and the radioactivity counted. For presentation of HEL peptide (FIG. 2(c)) and Ig-HEL (FIG. 2(d)), T cell activation was assessed by measuring IL-2 production as the HEL-specific cells were from a hybridoma. Accordingly, after 24 hours incubation IL-2 was measured in 100 μl supernatant by ELISA. […]

[1] = system: INSβ-specific T cell line; experiment: Presentation to INSβ-specific T cell line ([3H]thymidine proliferation); conditions: irradiated NOD splenic APCs; peptides 10 μM, Ig-chimeras 1 μM; 3-day incubation
Procedure: T cell lines: A T cell line specific for INSβ peptide was generated by immunizing NOD mice with 100 μg of INSβ peptide in 200 μl PBS/CFA (vol/vol) subcutaneously (“s.c.”) in the footpads and at the base of each limb. After 10 days, the draining lymph nodes were removed, and T cells were stimulated in vitro for 2 rounds in the presence of irradiated (3000 rads), syngenic splenocytes, 5% T-Stim supplement (Collaborative Biomedical Products, Bedford, Mass.), and INSβ peptide (25 μg/ml). […]
as §1

islet cells = experiment: IFNγ response of islet cells from 14 week old mice; conditions: INSβ peptide 18 μM, Ig-INSβ chimeras 1 μM; 24 hours; no rIL-10
Procedure: (§2) Detection of IL-10 and IFNγ was performed according to BD Pharmingen's standard protocol. The capture Abs were as follows: rat anti-mouse IL-10, JES5-2A5 and rat anti-mouse IFNγ, R4-6A2. The biotinylated anti-cytokine Abs were as follows: rat anti-mouse IL-10, JES5-16E3 and rat anti-mouse IFNγ, XMG1.2. Both antibodies were purchased from BD Pharmingen (San Diego, Calif.). ELISA for the detection of active TGFβ was preformed using the human TGFβ1 DuoSet kit (R&D systems, Minneapolis, Minn.) according to the manufacturer's instructions. […] All assays were read on a SpectraMAX 190 counter. Graded amounts of recombinant mouse IFNγ, IL-10, and TGFβ were included in all experiments for construction of standard curves. The cytokine concentration in culture supernatants was interpolated from the linear portion of the standard curve.
Islet-infiltrating cells were derived from 14 week old female NOD mice by collagenase digestion as previously described (36). […] Viability of the cells was determined by trypan blue exclusion.
To test this premise, splenic and islet cells from 14 week old mice were stimulated with agg Ig-INSβ, which induces IL-10 production by the presenting APCs and secretion of IFNγ was measured. […]

Splenic cells = experiment: IFNγ response of splenic cells from 14 week old mice; conditions: INSβ peptide 18 μM, Ig-INSβ chimeras 1 μM; 24 hours; no rIL-10
Procedure: as §2
To test this premise, splenic and islet cells from 14 week old mice were stimulated with agg Ig-INSβ, which induces IL-10 production by the presenting APCs and secretion of IFNγ was measured. Splenic (a) and islet (b) cells (5×10^5 cells/well) from 14 week old female NOD mice were stimulated with the indicated antigen in the presence or absence of 1 ng of rIL-10 for 24 hours. The supernatant (100 μl/well) was used to measure IFNγ by ELISA as indicated in “Materials and Methods”. […]

AMKRHGLDNYRGYSL [HEL peptide] was tested, and the “stimulation of HEL-specific hybridoma (IL-2 production)” value (HEL-specific hybridoma) was “able to stimulate the HEL-specific hybridoma” and the “proliferation of the INSβ-specific T cell line” value [1] was “unable to induce proliferation”.
With SHLVEALYLVCGERG [INSβ peptide] the “IFNγ response of islet T cells” value (islet cells) was “developed IFNγ responses”, the “proliferation of the INSβ-specific T cell line” value [1] was “proliferated significantly” and the “IFNγ response of splenic T cells” value (Splenic cells) was “developed IFNγ responses”.
